In ChEMBL document CHEMBL4346657, “Anticancer activity, dual prooxidant/antioxidant effect and apoptosis induction profile of new bichalcophene-5-carboxamidines” (Eur J Med Chem, 2019):

Key:
[1] = tested on: OVCAR-8; assay: Antiproliferative activity against human OVCAR8 cells assessed as growth inhibition after 48 hrs by sulforhodamine B assay; type: functional; conditions: OVCAR-8, 48 h
[2] = tested on: Panel NCI-60 (60 carcinoma cell lines); assay: Antiproliferative activity against human NCI60 cells assessed as growth inhibition at 10 uM after 48 hrs by sulforhodamine B assay; type: functional; conditions: read-out: GI
[3] = tested on: BT-549; assay: Antiproliferative activity against human BT549 cells assessed as growth inhibition after 48 hrs by sulforhodamine B assay; type: functional; conditions: BT-549, 48 h
[4] = tested on: NCI-H460; assay: Antiproliferative activity against human NCI-H460 cells assessed as growth inhibition after 48 hrs by sulforhodamine B assay; type: functional; conditions: NCI-H460, 48 h
[5] = Antioxidant activity assessed as DPPH radical scavenging activity incubated in dark for 30 mins by spectrophotometric method relative to control; type: functional; parameters: concentration or dose not given beside the values
[6] = tested on: UACC-257; assay: Antiproliferative activity against human UACC257 cells assessed as growth inhibition after 48 hrs by sulforhodamine B assay; type: functional; conditions: UACC-257, 48 h
[7] = tested on: SNB-75; assay: Antiproliferative activity against human SNB75 cells assessed as growth inhibition after 48 hrs by sulforhodamine B assay; type: functional; conditions: SNB-75, 48 h
[8] = tested on: HCT-116; assay: Antiproliferative activity against human HCT116 cells assessed as growth inhibition after 48 hrs by sulforhodamine B assay; type: functional; conditions: HCT-116, 48 h
[9] = Antioxidant activity assessed as ABTS radical scavenging activity by spectrophotometric method relative to ascorbic acid; type: functional
[10] = tested on: SF-268; assay: Antiproliferative activity against human SF268 cells assessed as growth inhibition after 48 hrs by sulforhodamine B assay; type: functional; conditions: SF-268, 48 h
[11] = tested on: TK-10; assay: Antiproliferative activity against human TK10 cells assessed as growth inhibition after 48 hrs by sulforhodamine B assay; type: functional; conditions: TK-10, 48 h
[12] = tested on: WI-38; assay: Cytotoxicity activity against human WI38 cells assessed as reduction in cell viability measured after 48 hrs by MTT assay; type: cell-based; conditions: WI-38, 48 h
[13] = tested on: RXF 393; assay: Antiproliferative activity against human RXF393 cells assessed as growth inhibition after 48 hrs by sulforhodamine B assay; type: functional; conditions: RXF 393, 48 h
[14] = tested on: SW-620; assay: Antiproliferative activity against human SW620 cells assessed as growth inhibition after 48 hrs by sulforhodamine B assay; type: functional; conditions: SW-620, 48 h
[15] = tested on: RPMI-8226; assay: Antiproliferative activity against human RPMI8226 cells assessed as growth inhibition after 48 hrs by sulforhodamine B assay; type: functional; conditions: RPMI-8226, 48 h
[16] = tested on: Malme-3M; assay: Antiproliferative activity against human MALME-3M cells assessed as growth inhibition after 48 hrs by sulforhodamine B assay; type: functional
[17] = tested on: HOP-62; assay: Antiproliferative activity against human HOP62 cells assessed as growth inhibition after 48 hrs by sulforhodamine B assay; type: functional; conditions: HOP-62, 48 h
[18] = tested on: SK-OV-3; assay: Antiproliferative activity against human SKOV3 cells assessed as growth inhibition after 48 hrs by sulforhodamine B assay; type: functional; conditions: SK-OV-3, 48 h
[19] = tested on: Panel NCI-60 (60 carcinoma cell lines); assay: Antiproliferative activity against human NCI60 cells assessed as growth inhibition after 48 hrs by sulforhodamine B assay; type: functional
[20] = tested on: U-251; assay: Antiproliferative activity against human U251 cells assessed as growth inhibition after 48 hrs by sulforhodamine B assay; type: functional; conditions: U-251, 48 h
[21] = tested on: Hs-578T; assay: Antiproliferative activity against human Hs578T cells assessed as growth inhibition after 48 hrs by sulforhodamine B assay; type: functional
[22] = tested on: A498; assay: Antiproliferative activity against human A498 cells assessed as growth inhibition after 48 hrs by sulforhodamine B assay; type: functional; conditions: A498, 48 h
[23] = tested on: NCI/ADR-RES; assay: Antiproliferative activity against human NCI-ADR-RES cells assessed as growth inhibition after 48 hrs by sulforhodamine B assay; type: functional
[24] = tested on: NCI-H226; assay: Antiproliferative activity against human NCI-H226 cells assessed as growth inhibition after 48 hrs by sulforhodamine B assay; type: functional; conditions: NCI-H226, 48 h
[25] = tested on: HCT-116; assay: Induction of apoptosis in human HCT116 cells assessed as increase in caspase 3 mRNA expression at 100 nM after 6 hrs hrs by SYBR green dye-based qRT-PCR analysis relative to control; type: functional
[26] = tested on: OVCAR-3; assay: Antiproliferative activity against human OVCAR3 cells assessed as growth inhibition after 48 hrs by sulforhodamine B assay; type: functional; conditions: OVCAR-3, 48 h
[27] = tested on: MDA-MB-231; assay: Antiproliferative activity against human MDA-MB-231/ATCC cells assessed as growth inhibition after 48 hrs by sulforhodamine B assay; type: functional; conditions: MDA-MB-231, 48 h
[28] = tested on: 786-0; assay: Antiproliferative activity against human 786-0 cells assessed as growth inhibition after 48 hrs by sulforhodamine B assay; type: functional; conditions: 786-0, 48 h
[29] = tested on: HCT-116; assay: […] in CDK1 mRNA expression in human HCT116 cells at 100 nM after 6 hrs hrs by SYBR green dye-based qRT-PCR analysis relative to control; type: functional
[30] = tested on: HT-29; assay: Antiproliferative activity against human HT-29 cells assessed as growth inhibition after 48 hrs by sulforhodamine B assay; type: functional; conditions: HT-29, 48 h
[31] = tested on: ACHN; assay: Antiproliferative activity against human ACHN cells assessed as growth inhibition after 48 hrs by sulforhodamine B assay; type: functional
[32] = tested on: MOLT-4; assay: Antiproliferative activity against human MOLT4 cells assessed as growth inhibition after 48 hrs by sulforhodamine B assay; type: functional; conditions: MOLT-4, 48 h
[33] = tested on: HCC 2998; assay: Antiproliferative activity against human HCC2998 cells assessed as growth inhibition after 48 hrs by sulforhodamine B assay; type: functional; conditions: HCC 2998, 48 h
[34] = tested on: Erythrocyte; assay: Haemolytic activity in human erythrocytes assessed as induction of hemolysis at 0.625 mM after 30 mins relative to H202; type: cell-based; conditions: erythrocyte, 0.5 h, 625 µM
[35] = tested on: NCI-H522; assay: Antiproliferative activity against human NCI-H522 cells assessed as growth inhibition after 48 hrs by sulforhodamine B assay; type: functional; conditions: NCI-H522, 48 h
[36] = Antioxidant activity assessed as DPPH radical scavenging activity incubated in dark for 30 mins by spectrophotometric method relative to ascorbic acid; type: functional
[37] = tested on: IGROV-1; assay: Antiproliferative activity against human IGROV1 cells assessed as growth inhibition after 48 hrs by sulforhodamine B assay; type: functional; conditions: IGROV-1, 48 h
[38] = Haemolytic activity in human erythrocytes assessed as induction of hemolysis at 10 mM after 30 mins relative to H202; type: cell-based, Erythrocyte; conditions: read-out: Activity
[39] = Haemolytic activity in human erythrocytes assessed as induction of hemolysis at 5 mM after 30 mins relative to H202; type: cell-based, Erythrocyte; conditions: read-out: Activity
[40] = tested on: NCI-H23; assay: Antiproliferative activity against human NCI-H23 cells assessed as growth inhibition after 48 hrs by sulforhodamine B assay; type: functional; conditions: NCI-H23, 48 h
[41] = tested on: SF-295; assay: Antiproliferative activity against human SF295 cells assessed as growth inhibition after 48 hrs by sulforhodamine B assay; type: functional; conditions: SF-295, 48 h
[42] = tested on: OVCAR-4; assay: Antiproliferative activity against human OVCAR4 cells assessed as growth inhibition after 48 hrs by sulforhodamine B assay; type: functional; conditions: OVCAR-4, 48 h

COc1ccc(-c2ccc(-c3ccc(C(=N)N)o3)o2)cc1
GI50 [1]: 3190 nM | inhibition of growth at 10 µM [2]: 86.4% | GI50 [3]: 4.55 µM | GI50 [4]: 1170 nM | inhibition [5]: 61.7% | GI50 [6]: 11.1 µM | GI50 [7]: 1470 nM | GI50 [8]: 1070 nM | fold change (FC) [9]: 0.7 | GI50 [10]: 2040 nM | GI50 [11]: 7.97 µM | IC50 [12]: 72.9 µM | GI50 [13]: 2120 nM | GI50 [14]: 530 nM | GI50 [15]: 2680 nM | GI50 [16]: 3970 nM | GI50 [17]: 1500 nM | GI50 [18]: 5.63 µM | GI50 [19]: 1740 nM | LC50 [19]: 20.4 µM | TGI [19]: 5.89 µM | GI50 [20]: 1740 nM | GI50 [21]: 4.33 µM | GI50 [22]: 1760 nM | GI50 [23]: 1880 nM | GI50 [24]: 22 µM | fold change (FC) [25]: 2.67 | GI50 [26]: 920 nM | GI50 [27]: 1900 nM | GI50 [28]: 2220 nM | fold change (FC) [29]: 1.02 | GI50 [30]: 480 nM | GI50 [31]: 1800 nM | GI50 [32]: 1200 nM | GI50 [33]: 1580 nM | Activity [34]: Non-Toxic | GI50 [35]: 1090 nM | fold change (FC) [36]: 0.7 | GI50 [37]: 1730 nM | hemolysis at 0.5 h, 10000 µM [38]: 71.7% | hemolysis at 0.5 h, 5000 µM [39]: 36.3% | GI50 [40]: 4.34 µM | GI50 [41]: 1680 nM | GI50 [42]: 2220 nM

N=C(N)c1ccc(-c2ccc(-c3ccc(F)cc3)s2)s1
GI50 [1]: 2230 nM | inhibition of growth at 10 µM [2]: -25.8% | GI50 [3]: 1.89 µM | GI50 [4]: 1890 nM | inhibition [5]: 44.8% | GI50 [6]: 2.19 µM | GI50 [7]: 1480 nM | GI50 [8]: 1730 nM | fold change (FC) [9]: 0.5 | GI50 [10]: 1690 nM | GI50 [11]: 1.72 µM | IC50 [12]: 13.3 µM | GI50 [13]: 1750 nM | GI50 [14]: 1740 nM | GI50 [15]: 2100 nM | GI50 [16]: 1810 nM | GI50 [17]: 1640 nM | GI50 [18]: 1.8 µM | GI50 [19]: 1770 nM | LC50 [19]: 12 µM | TGI [19]: 3.54 µM | GI50 [20]: 1800 nM | GI50 [21]: 2.19 µM | GI50 [22]: 1950 nM | GI50 [23]: 1790 nM | GI50 [24]: 1.42 µM | fold change (FC) [25]: 3.71 | GI50 [26]: 1780 nM | GI50 [27]: 1740 nM | GI50 [28]: 1810 nM | fold change (FC) [29]: 0.89 | GI50 [30]: 1530 nM | GI50 [31]: 1710 nM | GI50 [32]: 1520 nM | GI50 [33]: 1730 nM | Activity [34]: Non-Toxic | GI50 [35]: 1820 nM | fold change (FC) [36]: 0.5 | GI50 [37]: 1730 nM | hemolysis at 0.5 h, 10000 µM [38]: 93.3% | hemolysis at 0.5 h, 5000 µM [39]: 59.7% | GI50 [40]: 1.8 µM | GI50 [41]: 1610 nM | GI50 [42]: 1680 nM
